The conditions of series [1]: cited from earlier work.
Series [2] relates to left ventricle myocardium. Put plainly: Cross-sectional delayed enhancement MRI/CMR study of gadolinium contrast uptake, voxel intensity and auto-correlation. Type of series: in vivo, human. The text has this:
In particular embodiments of the present invention, a patient may be taken to the MRI suite where he/she will be placed supine on the MRI table and ECG leads and respiratory gating bellows applied. MRI scans may be performed on, for example, a 1.5 Tesla GE CVi scanner with a phased array surface coil applied around the chest to optimize signal to noise ratio, or another MRI scanner. Images may be acquired using a fast gradient echo technique, with the repetition time (TR) and echo time (TE) based on the R-R interval of the subject. Multislice coronal, gradient echo sequences may be used to obtain scout images of the chest and locate the left ventricle. Subjects may be injected intravenously with a gadolinium contrast agent (0.2 mmole/kg Gadoteridol (Prohance, Bracco Diagnostics, Princeton, N.J.)). The time of this injection may be recorded.
However, this method may not be as well suited for a process that causes necrosis to susceptible tissue throughout the LV myocardium in a randomly distributed pattern (e.g. a global injury). To overcome this limitation, voxels, and in some embodiments all the voxels, within three short axis slice positions (apex, middle, and base) within the LV may be sampled and the intensity and x, y, and z coordinates of each voxel identified in 3-dimensional space (FIG. 6). FIG. 6 is a 3-Dimensional depiction of 3 short axis (basal, middle, and apical) planes of the left ventricle. […] During analysis, the image intensity of each voxel and the x, y, and z coordinates are recorded. […]
Correction for variations in the intensity of voxels in the images may also be identified by determining the intensity of voxels within a target region, typically, a 1 cm diameter circular ROI placed outside the heart. For each apical, middle, and basal slice, the number of pixels at a given intensity may be determined and the intensity from the ROI external to the heart subtracted from the pixels. In certain embodiments, for each slice, the mean intensity of all voxels and the peak voxel intensity in the highest 40% of the distribution may be determined (FIG. 6). […]

With `COc1cccc2c1C(=O)c1c(O)c3c(c(O)c1C2=O)C[C@@](O)(C(=O)CO)C[C@@H]3O[C@H]1C[C@H](N)[C@H](O)[C@H](C)O1` [doxorubicin], the “patients experiencing toxicity who do so after receipt of approximately 100 mg/m^2” value in series [1] (approximately 100 mg/m^2, usually at T=1 month) was “about 85%”. In addition, in series [1] (patients, cumulative dose), the “dose above which irreversible cardiomyopathy with serious congestive heart failure is a significant risk” value is recorded as 500-550 mg/m^2. Moreover, the “dose that precipitates congestive heart failure” value in series [1] (report of 1487 patients studied over a seven year period) is listed as 30-880 mg/m^2. Besides, the “mean intensity of contrast uptake in voxel histogram” value in series [2] (doxorubicin cardiomyopathy patient, middle short axis view, 20 minutes after contrast, low in healthy patient, highest in infarct patient) is recorded as “intermediate”. The “percentage of voxel intensities in aggregate histograms vs normal age matched controls” value in series [2] (patients with cardiomyopathy due to doxorubicin, about 20 minutes after contrast) is “increased percentage of intensities”. The “pattern of contrast uptake within the LV (serial auto-correlation)” value in series [2] (patients with cardiomyopathy secondary to doxorubicin, p<0.001 vs myocardial infarction) is recorded as “random”.

The record behind these values is patent US9123099B2, “Systems with workstations and circuits for generating images of global injury” (Wake Forest University Health Sciences, priority 2004, dated 2015).
